# Source: US20040102423A1, “Spironolactone and angiotensin II antagonist combination therapy for treatment of congestive heart failure” (G.D. Searle & Co., priority 1995, published 2004)
# Like-named read-outs stand apart in the source and are kept apart here.
# Columns and labels:
# [1] = target: angiotensin II AT1 receptor; test: Assay A: Angiotensin II binding activity, rat uterine membrane preparation, 125I-AII displacement
# Protocol: Assay A: Antiotensin II Binding Activity
# Compounds of the invention were tested for ability to bind to the smooth muscle angiotensin II receptor using a rat uterine membrane preparation. […] Rat uterine membranes were prepared from fresh tissue. All procedures were carried out at 4° C. Uteri were stripped of fat and homogenized in phosphate-buffered saline at pH 7.4 containing 5 mM EDTA. The homogenate was centrifuged at 1500×g for 20 min., and the supernatant was recentrifuged at 100,000×g for 60 min. The pellet was resuspended in buffer consisting of 2 mM EDTA and 50 mM Tris-HCl (pH 7.5) to a final protein concentration of 4 mg/ml. […] The reaction was initiated by the addition of membrane protein and the mixture was incubated at 25° C. for 60 min. The incubation was terminated with ice-cold 50 mM Tris-HCl (pH 7.5) and the mixture was filtered to separate membrane-bound labelled peptide from the free ligand. The incubation tube and filter were washed with ice-cold buffer. Filters were assayed for radioactivity in a Micromedic gamma counter. Nonspecific binding was defined as binding in the presence of 10 μM of unlabelled AII. Specific binding was calculated as total binding minus nonspecific binding. […] Binding data were analyzed by a nonlinear least-squares curve fitting program.
# pressor response to AII = test: Assay C: In vivo intragastric pressor assay response for AII antagonists; design: species or system Sprague-Dawley rats; conditions: for inhibition in vivo at 30 mg/kg: read-out: Assay C Inhibition
# rabbit aortic rings = test: Assay B: In vitro vascular smooth muscle response for AII (antagonist activity, pA2); assay type: cell-based; conditions: Oryctolagus cuniculus, two values in a cell = two determinations
# Protocol: Assay B: In Vitro Vascular Smooth Muscle-Response for AII
# The compounds of the invention were tested for antagonist activity in rabbit aortic rings. Male New Zealand white rabbits (2-2.5 kg) were sacrificed using an overdose of pentobarbital and exsanguinated via the carotid arteries. The thoracic aorta was removed, cleaned of adherent fat and connective tissue and then cut into 3-mm ring segments. The endothelium was removed from the rings by gently sliding a rolled-up piece of filter paper into the vessel lumen. The rings were then mounted in a water-jacketed tissue bath, maintained at 37° C., between moveable and fixed ends of a stainless steel wire with the moveable end attached to an FT03 Grass transducer coupled to a Model 7D Grass Polygraph for recording isometric force responses. The bath was filled with 20 ml of oxygenated (95% oxygen/5% carbon dioxide) Krebs solution of the following composition (mM): 130 NaCl, 15 NaHCO3, […], 1.2 NaH2PO4, 1.2 MgSO4, 2.5 CaCl2, and 11.4 glucose. The preparations were equilibrated for one hour before approximately one gram of passive tension was placed on the rings. Angiotensin II concentration-response curves were then recorded (3×10^−10 to 1×10^−5 M). Each concentration of AII was allowed to elicit its maximal contraction, and then AII was washed out repeatedly for 30 minutes before rechallenging with a higher concentration of AII. Aorta rings were exposed to the test antagonist at 10^−5 M for 5 minutes before challenging with AII. Adjacent segments of the same aorta ring were used for all concentration-response curves in the presence or absence of the test antagonist. The effectiveness of the test compound was expressed in terms of pA2 values and were calculated according to H. O. Schild [Br. J. Pharmacol. Chemother., 2, 189-206 (1947)]. The pA2 value is […] which increases the EC50 value for AII by a factor of two. Each test antagonist was evaluated in aorta rings from two rabbits.
# [2] = Rattus norvegicus, po, in vivo pressor response, 3 mg/kg intragastrically
# [3] = in vivo pressor response, 3 mg/kg intragastrically
# [4] = Rattus norvegicus, intraduodenal, in vivo pressor response, 30 mg/kg intraduodenally
# [5] = in vivo pressor response, 30 mg/kg intraduodenally
Structure (SMILES),IC50 [1],inhibition in vivo at 3 mg/kg (pressor response to AII; [2]),Assay C Duration (pressor response to AII; [3]),also measured
CCCCn1nc(C(=O)CCC)nc1Cc1ccc(-c2ccccc2-c2nnn[nH]2)nc1 [Compound 171],28 nM,0%,0 min,–
C[C@]12CCC(=O)C=C1C1CC1[C@H]1[C@@H]3CC[C@@]4(CCC(=O)O4)[C@@]3(C)CC3O[C@]312 (stereo partly shown) [Compound 9],700 nM,–,–,"inhibition in vivo at 30 mg/kg (pressor response to AII; [4]): 80%; inhibition in vivo at 100 mg/kg (pressor response to AII; Rattus norvegicus, intraduodenal, in vivo pressor response, 100 mg/kg intraduodenally): 100%; Assay C Duration (pressor response to AII; [5]): 75 min; Assay C Duration (pressor response to AII; in vivo pressor response, 100 mg/kg intraduodenally): 130 min"
CCCCn1cc(CCC(C)C)n(Cc2ccc(-c3ccccc3-c3nnn[nH]3)nc2)c1=O [Compound 200],20 nM,45%,>180 min,–
CCCn1nc(C(F)(F)CCC)nc1Cc1ccc(-c2ccccc2-c2nnn[nH]2)nc1 [Compound 180],20 nM,25%,180 min,–
COC(=O)[C@@H]1CC2=CC(=O)CC[C@]2(C)C23O[C@@H]2C[C@@]2(C)[C@@H](CC[C@@]2(O)CCC(=O)O)[C@H]13.[K+] (stereo partly shown) [Compound 5],200 nM,–,–,"inhibition in vivo at 30 mg/kg (pressor response to AII; Rattus norvegicus, intraduodenal): 38%; Assay C Duration (pressor response to AII; [5]): 20 to 30 min"
CCCCc1nc(CCCC)n(Cc2ccc(-n3ccc(-c4nnn[nH]4)c3)cc2)n1 [Compound 153],13 nM,25%,>180 min,–
CCCCn1nc(C(O)CCC)nc1Cc1ccc(-c2ccccc2-c2nnn[nH]2)nc1 (stereo not shown) [Compound 170],26 nM,40%,>180 min,–
CCCCn1nc(C(C)(F)F)nc1Cc1ccc(-c2ccccc2-c2nnn[nH]2)nc1 [Compound 177],26 nM,15%,180 min,–
CCCCc1nc2c(O)nnc(CCC)c2n1Cc1ccc(-c2ccccc2-c2nnn[nH]2)cc1 [Compound 125],–,35%,>240 min,–
CCCCn1nc(C(F)(F)CCC)nc1Cc1ccc(-c2ccccc2-c2nnn[nH]2)nc1 [Compound 181],21 nM,20%,180 min,–
CCCCn1nc(C(C)(OC)OC)nc1Cc1ccc(-c2ccccc2-c2nnn[nH]2)nc1 [Compound 193],11 nM,10%,180 min,–
CCCCc1nc2cnncc2n1Cc1ccc(-c2ccccc2-c2nnn[nH]2)cc1 [Compound 128],–,–,–,Kb (rabbit aortic rings): 2.34 nM
CCCCn1nc(C(OC)OC)nc1Cc1ccc(-c2ccccc2-c2nnn[nH]2)nc1 [Compound 186],38 nM,25%,18 min,–
CCn1nc(C(C)(F)F)nc1Cc1ccc(-c2ccccc2-c2nnn[nH]2)nc1 [Compound 175],27 nM,0%,0 min,–
CCOC(=O)[C@@H]1CC2=CC(=O)CC[C@]2(C)C23O[C@@H]2C[C@@]2(C)[C@@H](CC[C@@]24CCC(=O)O4)[C@H]13 (stereo partly shown) [Compound 10],4.9 nM,–,–,"inhibition in vivo at 3 mg/kg (pressor response to AII; Rattus norvegicus, intraduodenal, in vivo pressor response, 3 mg/kg intraduodenally): 86%; inhibition in vivo at 30 mg/kg (pressor response to AII; [4]): 100%; Assay C Duration (pressor response to AII; in vivo pressor response, 3 mg/kg intraduodenally): 100 min; Assay C Duration (pressor response to AII; [5]): 240 min"
CCCCc1nc(C(F)(F)C(F)(F)C(F)(F)F)nn1Cc1ccc(-c2ccccc2-c2nnn[nH]2)cc1 [Compound 81],–,–,–,Kb (rabbit aortic rings): 10 nM

# The next lines start with results.
IC50 [1],Structure (SMILES),inhibition in vivo at 3 mg/kg (pressor response to AII; [2]),Assay C Duration (pressor response to AII; [3]),also measured
4.1 nM,CCCCc1nc(CCCC)n(Cc2ccc(-c3ncccc3-c3nnn[nH]3)cc2)n1 [Compound 256],30%,>180 min,–
14 nM,CCCCc1nc(-c2ccccc2)n(Cc2ccc(-c3ccccc3-c3nnn[nH]3)nc2)n1 [Compound 271],20%,–,–
4.4 nM,CCCCc1cn(-c2cccn2CC)c(=O)n1Cc1ccc(-c2ccccc2-c2nnn[nH]2)nc1 [Compound 249],20%,>180 min,–
4.9 nM,CCCCc1cn(CCCC)c(=O)n1Cc1ccc(-c2cnccc2-c2nnn[nH]2)cc1 [Compound 236],70%,>180 min,–
23 nM,CCCCc1cn(C(C)(C)C)c(=O)n1Cc1ccc(-c2ccccc2-c2nnn[nH]2)nc1 [Compound 212],15%,180 min,–
7 nM,CCCCc1cn(CCc2cccs2)c(=O)n1Cc1ccc(-c2ccccc2-c2nnn[nH]2)nc1 [Compound 220],75%,120 min,–
97 nM,CCCCc1nc(-c2ccccc2C)nn1Cc1ccc(-c2ccccc2-c2nnn[nH]2)nc1 [Compound 272],70%,>180 min,–
43 nM,CCCCc1nc(CCCC)n(Cc2ccc(-c3ccccc3-c3nnn[nH]3)cn2)n1 [Compound 250],0%,–,–
4.5 nM,CCCCc1cn(-c2ccccc2C)c(=O)n1Cc1ccc(-c2ccccc2-c2nnn[nH]2)nc1 [Compound 228],80%,>180 min,–
14 nM,CCCCc1cn(CCC2=CCCC2)c(=O)n1Cc1ccc(-c2ccccc2-c2nnn[nH]2)nc1 [Compound 223],20%,>180 min,–
9.4 nM,CCCCc1cn(CCC2CC2)c(=O)n1Cc1ccc(-c2ccccc2-c2nnn[nH]2)nc1 [Compound 217],65%,>180 min,–
5 nM,CCCCc1cn(CCCC)c(=O)n1Cc1ccc(-c2ccccc2-c2nnn[nH]2)cn1 [Compound 234],20%,–,–
25 nM,CCCCc1nc(C(=O)N(C)C(C)(C)C)n(Cc2ccc(-c3ccccc3-c3nnn[nH]3)nc2)n1 [Compound 267],25%,>180 min,–
22 nM,CCCCc1cn(CC(C)C)c(=O)n1Cc1ccc(-c2ccccc2-c2nnn[nH]2)nc1 [Compound 208],50%,>180 min,–
4.8 nM,CCCCc1cn(CCc2ccccc2)c(=O)n1Cc1ccc(-c2ccccc2-c2nnn[nH]2)nc1 [Compound 221],25%,>180 min,–
2.6 nM,CCCCc1cn(-c2ccccc2C(C)C)c(=O)n1Cc1ccc(-c2ccccc2-c2nnn[nH]2)nc1 [Compound 230],25%,>180 min,–
3.6 nM,CCCCc1cn(-c2c(F)cccc2F)c(=O)n1Cc1ccc(-c2ccccc2-c2nnn[nH]2)nc1 [Compound 231],75%,>180 min,–
19 nM,CCCCc1cn(-c2ccccc2OC)c(=O)n1Cc1ccc(-c2ccccc2-c2nnn[nH]2)nc1 [Compound 229],40%,>180 min,–
520 nM,CCCCc1nc(C(=O)NC)nn1Cc1ccc(-c2ccccc2-c2nnn[nH]2)nc1 [Compound 268],0%,–,–
16 nM,CCCCn1cc(CCC2CC2)n(Cc2ccc(-c3ccccc3-c3nnn[nH]3)nc2)c1=O [Compound 204],75%,>180 min,–
1.7 nM,CCCCc1cn(CCCC)c(=O)n1Cc1ccc(-c2cccnc2-c2nnn[nH]2)cc1 [Compound 238],15%,>180 min,–
6.9 nM,CCCCc1cn(-c2c(OC)cccc2OC)c(=O)n1Cc1ccc(-c2ccccc2-c2nnn[nH]2)nc1 [Compound 241],40%,>180 min,–
